We go through 11 compounds from patent US20260356819A1, “OXOISOINDOLINYL-SUBSTITUTED […] DERIVATIVE AND USE THEREOF” (GLUETACS THERAPEUTICS (SHANGHAI) CO., LTD., priority 2023, published 2026).

What all share (format): cell-based
Common to all, as to settings: compounds at 50 nM and 500 nM

In one assay the target is T1, IKZF2 (Homo sapiens, UniProt Q96SW2+Q9UKS7).
T1 construct: The supernatant was aspirated as the extracted total cell protein; endogenous in cells; host or cells: human peripheral blood mononuclear cells (hPBMCs)
As to the kind of experiment: Western blot degradation of IKZF2 in hPBMCs (24 h). The gist of the method: (§1)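 Immunoblot densitometry quantifies target loss in hPBMCs after a 24 h compound exposure (50 nM, 500 nM). Percent remaining is normalised band intensity; DC50 is the concentration giving half the DMSO-control band grayscale.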
A general note: Immunoblotting shows a protein as a band on a membrane.

A further assay addresses T2, CK1α (Homo sapiens, UniProt P48729+Q96SW2).
T2 construct: The supernatant was aspirated as the extracted total cell protein; endogenous in cells; host or cells: human peripheral blood mononuclear cells (hPBMCs)
Briefly: Western blot degradation of CK1α in hPBMCs (24 h). The gist of the method:
as §1

The next assay deals with T3, IKZF1 (Homo sapiens, UniProt Q13422+Q96SW2).
T3 construct: The supernatant was aspirated as the extracted total cell protein; endogenous in cells; host or cells: human peripheral blood mononuclear cells (hPBMCs)
T3 sequence (Q13422 whole entry): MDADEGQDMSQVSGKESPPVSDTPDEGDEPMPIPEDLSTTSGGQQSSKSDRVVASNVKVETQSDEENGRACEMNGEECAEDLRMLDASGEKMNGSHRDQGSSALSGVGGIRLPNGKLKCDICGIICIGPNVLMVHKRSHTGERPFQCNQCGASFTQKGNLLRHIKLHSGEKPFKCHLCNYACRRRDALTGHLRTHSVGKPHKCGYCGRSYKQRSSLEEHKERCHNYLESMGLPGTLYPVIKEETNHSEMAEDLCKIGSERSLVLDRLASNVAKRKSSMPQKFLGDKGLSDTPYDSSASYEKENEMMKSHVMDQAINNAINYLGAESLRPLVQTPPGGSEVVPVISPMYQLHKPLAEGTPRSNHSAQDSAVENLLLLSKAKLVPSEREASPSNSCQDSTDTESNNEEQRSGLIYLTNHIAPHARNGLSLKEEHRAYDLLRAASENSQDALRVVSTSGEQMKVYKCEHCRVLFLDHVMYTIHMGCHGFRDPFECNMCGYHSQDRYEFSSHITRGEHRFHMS
T3 sequence (Q96SW2 whole entry): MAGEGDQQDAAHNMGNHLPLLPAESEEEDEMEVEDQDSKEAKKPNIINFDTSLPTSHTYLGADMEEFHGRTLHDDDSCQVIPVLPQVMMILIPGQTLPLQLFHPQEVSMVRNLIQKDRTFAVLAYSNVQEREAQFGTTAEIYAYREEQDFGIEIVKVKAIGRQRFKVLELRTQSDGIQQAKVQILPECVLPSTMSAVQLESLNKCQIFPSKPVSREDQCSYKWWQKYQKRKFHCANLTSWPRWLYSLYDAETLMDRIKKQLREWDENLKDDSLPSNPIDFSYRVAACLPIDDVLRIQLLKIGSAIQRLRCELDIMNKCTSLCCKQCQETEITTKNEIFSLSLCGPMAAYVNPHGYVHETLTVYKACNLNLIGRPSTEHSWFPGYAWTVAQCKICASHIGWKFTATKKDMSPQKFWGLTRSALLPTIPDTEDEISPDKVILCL
T3 sequence (Q16531 whole entry partner): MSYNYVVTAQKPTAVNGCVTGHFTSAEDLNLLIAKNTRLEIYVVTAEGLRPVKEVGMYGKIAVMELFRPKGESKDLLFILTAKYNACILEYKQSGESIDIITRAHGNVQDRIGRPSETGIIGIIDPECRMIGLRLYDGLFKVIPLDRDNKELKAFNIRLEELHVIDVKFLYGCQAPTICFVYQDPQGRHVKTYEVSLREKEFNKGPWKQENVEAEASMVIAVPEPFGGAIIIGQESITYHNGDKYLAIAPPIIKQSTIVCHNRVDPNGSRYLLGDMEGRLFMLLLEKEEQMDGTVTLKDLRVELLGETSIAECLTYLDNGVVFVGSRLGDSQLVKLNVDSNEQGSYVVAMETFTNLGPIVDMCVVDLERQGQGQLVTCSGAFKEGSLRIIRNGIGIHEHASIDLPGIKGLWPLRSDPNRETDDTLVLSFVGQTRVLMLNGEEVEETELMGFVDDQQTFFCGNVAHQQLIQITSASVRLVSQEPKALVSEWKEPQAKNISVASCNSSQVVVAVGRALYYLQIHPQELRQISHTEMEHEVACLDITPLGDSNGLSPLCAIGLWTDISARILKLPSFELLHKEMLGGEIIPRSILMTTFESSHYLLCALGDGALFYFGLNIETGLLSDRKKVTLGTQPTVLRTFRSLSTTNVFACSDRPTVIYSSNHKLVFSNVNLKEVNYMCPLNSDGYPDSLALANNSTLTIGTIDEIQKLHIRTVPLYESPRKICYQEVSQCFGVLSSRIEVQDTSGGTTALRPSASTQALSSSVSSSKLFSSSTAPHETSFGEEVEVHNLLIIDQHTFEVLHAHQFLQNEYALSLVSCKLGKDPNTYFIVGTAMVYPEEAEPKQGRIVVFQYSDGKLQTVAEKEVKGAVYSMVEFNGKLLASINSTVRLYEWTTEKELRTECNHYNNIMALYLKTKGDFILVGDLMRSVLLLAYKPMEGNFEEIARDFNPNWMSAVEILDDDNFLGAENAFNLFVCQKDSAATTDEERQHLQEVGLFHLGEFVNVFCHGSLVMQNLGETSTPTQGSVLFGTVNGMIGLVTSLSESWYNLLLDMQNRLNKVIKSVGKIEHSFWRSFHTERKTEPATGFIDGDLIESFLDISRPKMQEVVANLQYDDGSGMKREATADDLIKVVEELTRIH
Briefly: Western blot degradation of IKZF1 in hPBMCs (24 h). The gist of the method:
as §1

Another assay deals with T4, IKZF3 (Homo sapiens, UniProt Q96SW2+Q9UKT9).
T4 construct: The supernatant was aspirated as the extracted total cell protein; endogenous in cells; host or cells: human peripheral blood mononuclear cells (hPBMCs)
T4 sequence (Q9UKT9 whole entry): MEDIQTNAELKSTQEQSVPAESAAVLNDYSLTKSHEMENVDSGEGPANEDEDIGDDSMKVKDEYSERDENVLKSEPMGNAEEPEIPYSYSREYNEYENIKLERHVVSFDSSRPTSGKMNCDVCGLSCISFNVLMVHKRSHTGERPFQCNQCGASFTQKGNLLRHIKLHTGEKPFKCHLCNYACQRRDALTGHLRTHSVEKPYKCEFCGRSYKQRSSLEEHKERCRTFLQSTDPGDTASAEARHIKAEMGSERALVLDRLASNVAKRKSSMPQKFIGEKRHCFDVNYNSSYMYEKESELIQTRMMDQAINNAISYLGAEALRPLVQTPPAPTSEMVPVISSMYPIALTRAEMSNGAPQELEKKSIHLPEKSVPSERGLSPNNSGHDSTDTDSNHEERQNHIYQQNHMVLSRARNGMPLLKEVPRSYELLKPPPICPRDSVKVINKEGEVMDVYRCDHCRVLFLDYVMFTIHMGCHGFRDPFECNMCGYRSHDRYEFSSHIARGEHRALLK
T4 sequence (Q96SW2 whole entry): as the sequence (Q96SW2 whole entry) above
T4 sequence (Q16531 whole entry partner): as the sequence (Q16531 whole entry partner) above
As to the kind of experiment: Western blot degradation of IKZF3 in hPBMCs (24 h). The gist of the method: as §1

Another assay deals with T5, WEE1 (Homo sapiens, UniProt P30291+Q96SW2).
T5 construct: The supernatant was aspirated as the extracted total cell protein; endogenous in cells; host or cells: human peripheral blood mononuclear cells (hPBMCs)
T5 sequence (P30291 whole entry): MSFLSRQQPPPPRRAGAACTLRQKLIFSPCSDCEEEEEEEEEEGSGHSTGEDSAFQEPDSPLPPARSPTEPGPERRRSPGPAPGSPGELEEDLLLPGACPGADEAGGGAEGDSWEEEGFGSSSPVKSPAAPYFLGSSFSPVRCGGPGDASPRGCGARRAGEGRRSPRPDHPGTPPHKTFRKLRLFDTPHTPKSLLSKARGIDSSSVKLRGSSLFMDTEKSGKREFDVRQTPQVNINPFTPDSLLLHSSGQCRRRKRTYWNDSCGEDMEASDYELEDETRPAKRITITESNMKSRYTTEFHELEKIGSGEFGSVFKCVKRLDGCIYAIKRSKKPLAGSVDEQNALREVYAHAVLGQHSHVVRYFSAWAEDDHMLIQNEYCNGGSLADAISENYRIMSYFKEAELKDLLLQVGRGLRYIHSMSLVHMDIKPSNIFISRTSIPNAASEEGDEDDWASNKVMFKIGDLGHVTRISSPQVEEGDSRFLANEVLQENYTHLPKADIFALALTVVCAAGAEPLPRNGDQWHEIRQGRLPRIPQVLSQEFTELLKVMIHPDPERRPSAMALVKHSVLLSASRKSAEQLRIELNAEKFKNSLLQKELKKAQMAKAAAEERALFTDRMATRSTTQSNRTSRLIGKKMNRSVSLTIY
T5 sequence (Q96SW2 whole entry): as the sequence (Q96SW2 whole entry) above
T5 sequence (Q16531 whole entry partner): as the sequence (Q16531 whole entry partner) above
Briefly: Western blot degradation of WEE1 in hPBMCs (24 h). The gist of the method:
as §1

The next assay deals with T6, GSPT1 (Homo sapiens, UniProt P15170+Q96SW2).
T6 construct: The supernatant was aspirated as the extracted total cell protein; endogenous in cells; host or cells: human peripheral blood mononuclear cells (hPBMCs)
T6 sequence (P15170 whole entry): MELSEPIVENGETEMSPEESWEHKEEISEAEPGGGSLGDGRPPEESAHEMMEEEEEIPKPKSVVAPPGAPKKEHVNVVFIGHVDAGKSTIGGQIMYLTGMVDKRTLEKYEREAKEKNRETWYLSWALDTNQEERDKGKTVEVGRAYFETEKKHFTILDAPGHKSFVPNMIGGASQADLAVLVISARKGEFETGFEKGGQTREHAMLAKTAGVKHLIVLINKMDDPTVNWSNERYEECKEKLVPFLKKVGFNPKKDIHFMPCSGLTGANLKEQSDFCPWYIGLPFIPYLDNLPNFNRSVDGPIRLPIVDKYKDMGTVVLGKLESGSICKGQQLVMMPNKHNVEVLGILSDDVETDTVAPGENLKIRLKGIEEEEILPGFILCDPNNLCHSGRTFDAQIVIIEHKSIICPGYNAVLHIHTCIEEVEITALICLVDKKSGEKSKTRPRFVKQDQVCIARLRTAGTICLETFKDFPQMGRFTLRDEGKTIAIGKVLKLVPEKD
T6 sequence (Q96SW2 whole entry): as the sequence (Q96SW2 whole entry) above
T6 sequence (Q16531 whole entry partner): as the sequence (Q16531 whole entry partner) above
As to the kind of experiment: Western blot degradation of GSPT1 in hPBMCs (24 h). The gist of the method:
as §1

T2 sequence (P48729 whole entry): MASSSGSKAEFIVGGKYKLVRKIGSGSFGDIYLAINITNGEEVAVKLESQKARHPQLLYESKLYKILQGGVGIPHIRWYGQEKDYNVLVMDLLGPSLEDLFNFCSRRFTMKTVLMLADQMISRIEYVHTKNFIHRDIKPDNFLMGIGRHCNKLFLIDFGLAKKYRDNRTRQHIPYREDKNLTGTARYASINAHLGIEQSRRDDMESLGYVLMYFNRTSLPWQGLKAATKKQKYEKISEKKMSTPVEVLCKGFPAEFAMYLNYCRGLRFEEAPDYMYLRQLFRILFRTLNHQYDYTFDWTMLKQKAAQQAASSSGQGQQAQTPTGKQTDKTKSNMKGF
T2 sequence (Q96SW2 whole entry): as the sequence (Q96SW2 whole entry) above
T2 sequence (Q16531 whole entry partner): as the sequence (Q16531 whole entry partner) above

Regarding `Cc1nc(C2=CCN(Cc3ccc4c(c3)C(=O)N(N3CCC(=O)NC3=O)C4=O)CC2)c2c3c(sc2n1)CCCC3` [GT-08432, 2-(2,4-dioxotetrahydropyrimidin-1(2H)-yl)-5-((4-(2-methyl-5,6,7,8-tetrahydrobenzo[4,5]thieno[2,3-d]pyrimidin-4-yl)-3,6-dihydropyridin-1(2H)-yl)methyl)isoindoline-1,3-dione], on IKZF2, the “IKZF2 substrate protein remaining %” value was “B (80%< substrate protein remaining % ≤100%)”. Further, on CK1α, the “CK1α substrate protein remaining %” value is reported as “A (0% ≤ substrate protein remaining % ≤80%)”. Besides, the “IKZF1 substrate protein remaining %” value at IKZF1 is “B (80%< substrate protein remaining % ≤100%)”. Besides, the “IKZF3 substrate protein remaining %” value on IKZF3 was “A (0% ≤ substrate protein remaining % ≤80%)”. Moreover, on WEE1, the “WEE1 substrate protein remaining %” value was “B (80%< substrate protein remaining % ≤100%)”. Moreover, the “GSPT1 substrate protein remaining %” value at GSPT1 is “A (0% ≤ substrate protein remaining % ≤80%)”.

On to `O=C1CCN(N2C(=O)c3ccc(CN4CC=C(c5ncnc6sc7c(c56)CCCC7)CC4)cc3C2=O)C(=O)N1` [GT-08433, 2-(2,4-dioxotetrahydropyrimidin-1(2H)-yl)-5-((4-(5,6,7,8-tetrahydrobenzo[4,5]thieno[2,3-d]pyrimidin-4-yl)-3,6-dihydropyridin-1(2H)-yl)methyl)isoindoline-1,3-dione], for which, at IKZF2, the “IKZF2 substrate protein remaining %” value is “B (80%< substrate protein remaining % ≤100%)”. Moreover, the “CK1α substrate protein remaining %” value on CK1α is reported as “A (0% ≤ substrate protein remaining % ≤80%)”. For the same compound, the “IKZF1 substrate protein remaining %” value on IKZF1 is recorded as “B (80%< substrate protein remaining % ≤100%)”. Besides, the “IKZF3 substrate protein remaining %” value on IKZF3 is “A (0% ≤ substrate protein remaining % ≤80%)”. Moreover, the “WEE1 substrate protein remaining %” value at WEE1 is recorded as “B (80%< substrate protein remaining % ≤100%)”. Also, the “GSPT1 substrate protein remaining %” value on GSPT1 is “A (0% ≤ substrate protein remaining % ≤80%)”.

As for `O=C1CCN(N2C(=O)c3ccc(CN4CC=C(c5ncnc6sc7c(c56)CCC7)CC4)cc3C2=O)C(=O)N1` [GT-08434, 5-((4-(6,7-dihydro-5H-cyclopenta[4,5]thieno[2,3-d]pyrimidin-4-yl)-3,6-dihydropyridin-1(2H)-yl)methyl)-2-(2,4-dioxotetrahydropyrimidin-1(2H)-yl)isoindoline-1,3-dione], the “IKZF2 substrate protein remaining %” value on IKZF2 is reported as “A (0% ≤ substrate protein remaining % ≤80%)”. In addition, the “CK1α substrate protein remaining %” value on CK1α is recorded as “A (0% ≤ substrate protein remaining % ≤80%)”. On IKZF1, the “IKZF1 substrate protein remaining %” value is “A (0% ≤ substrate protein remaining % ≤80%)”. Moreover, the “IKZF3 substrate protein remaining %” value at IKZF3 is “A (0% ≤ substrate protein remaining % ≤80%)”. The “WEE1 substrate protein remaining %” value on WEE1 was “B (80%< substrate protein remaining % ≤100%)”. Besides, the “GSPT1 substrate protein remaining %” value on GSPT1 is recorded as “A (0% ≤ substrate protein remaining % ≤80%)”.

Take `Cc1nc(C2=CCN(Cc3ccc4c(c3)C(=O)N(N3CCC(=O)NC3=O)C4=O)CC2)c2c3c(sc2n1)CCC3` [GT-08435, 2-(2,4-dioxotetrahydropyrimidin-1(2H)-yl)-5-((4-(2-methyl-6,7-dihydro-5H-cyclopenta[4,5]thieno[2,3-d]pyrimidin-4-yl)-3,6-dihydropyridin-1(2H)-yl)methyl)isoindoline-1,3-dione]: at IKZF2, the “IKZF2 substrate protein remaining %” value is given as “B (80%< substrate protein remaining % ≤100%)”. Moreover, the “CK1α substrate protein remaining %” value on CK1α was “B (80%< substrate protein remaining % ≤100%)”. The “IKZF1 substrate protein remaining %” value at IKZF1 is on record as “A (0% ≤ substrate protein remaining % ≤80%)”. Besides, the “IKZF3 substrate protein remaining %” value at IKZF3 is recorded as “A (0% ≤ substrate protein remaining % ≤80%)”. The “WEE1 substrate protein remaining %” value at WEE1 is reported as “A (0% ≤ substrate protein remaining % ≤80%)”. The “GSPT1 substrate protein remaining %” value on GSPT1 was “A (0% ≤ substrate protein remaining % ≤80%)”.

Consider `Cc1nc(C2=CCN(Cc3ccc4c(c3)CN(N3CCC(=O)NC3=O)C4=O)CC2)c2c3c(sc2n1)CCC3` [GT-08437, 1-(5-((4-(2-methyl-6,7-dihydro-5H-cyclopenta[4,5]thieno[2,3-d]pyrimidin-4-yl)-3,6-dihydropyridin-1(2H)-yl)methyl)-1-oxoisoindolin-2-yl)dihydropyrimidine-2,4(1H,3H)-dione], for which the “IKZF2 substrate protein remaining %” value at IKZF2 is recorded as “B (80%< substrate protein remaining % ≤100%)”. For the same compound, at CK1α, the “CK1α substrate protein remaining %” value is given as “B (80%< substrate protein remaining % ≤100%)”. Further, the “IKZF1 substrate protein remaining %” value at IKZF1 was “A (0% ≤ substrate protein remaining % ≤80%)”. The “IKZF3 substrate protein remaining %” value at IKZF3 is recorded as “A (0% ≤ substrate protein remaining % ≤80%)”. Besides, at WEE1, the “WEE1 substrate protein remaining %” value is “A (0% ≤ substrate protein remaining % ≤80%)”. Also, the “GSPT1 substrate protein remaining %” value at GSPT1 is “A (0% ≤ substrate protein remaining % ≤80%)”.

Regarding `O=C1CCN(N2Cc3cc(CN4CC=C(c5ncc6ccsc6n5)CC4)ccc3C2=O)C(=O)N1` [GT-08438, 1-(1-oxo-5-((4-(thieno[2,3-d]pyrimidin-2-yl)-3,6-dihydropyridin-1(2H)-yl)methyl)isoindolin-2-yl)dihydropyrimidine-2,4(1H,3H)-dione], the “IKZF2 substrate protein remaining %” value at IKZF2 was “B (80%< substrate protein remaining % ≤100%)”. For the same compound, the “CK1α substrate protein remaining %” value on CK1α was “B (80%< substrate protein remaining % ≤100%)”. Besides, the “IKZF1 substrate protein remaining %” value on IKZF1 is reported as “A (0% ≤ substrate protein remaining % ≤80%)”. The “IKZF3 substrate protein remaining %” value on IKZF3 is recorded as “A (0% ≤ substrate protein remaining % ≤80%)”. At WEE1, the “WEE1 substrate protein remaining %” value was “A (0% ≤ substrate protein remaining % ≤80%)”. Further, the “GSPT1 substrate protein remaining %” value at GSPT1 is recorded as “A (0% ≤ substrate protein remaining % ≤80%)”.

For `O=C1CCN(N2Cc3cc(CN4CCN(c5nc(Cl)nc6c5SCC6)CC4)ccc3C2=O)C(=O)N1` [GT-08439, 1-(5-((4-(2-chloro-6,7-dihydrothieno[3,2-d]pyrimidin-4-yl)piperazin-1-yl)methyl)-1-oxoisoindolin-2-yl)dihydropyrimidine-2,4(1H,3H)-dione], on IKZF2, the “IKZF2 substrate protein remaining %” value is reported as “B (80%< substrate protein remaining % ≤100%)”. Also, the “CK1α substrate protein remaining %” value on CK1α is recorded as “B (80%< substrate protein remaining % ≤100%)”. The “IKZF1 substrate protein remaining %” value on IKZF1 is “A (0% ≤ substrate protein remaining % ≤80%)”. The “IKZF3 substrate protein remaining %” value on IKZF3 is recorded as “A (0% ≤ substrate protein remaining % ≤80%)”. Besides, on WEE1, the “WEE1 substrate protein remaining %” value was “A (0% ≤ substrate protein remaining % ≤80%)”. Besides, on GSPT1, the “GSPT1 substrate protein remaining %” value is listed as “A (0% ≤ substrate protein remaining % ≤80%)”.

For the compound `O=C1CCN(N2Cc3cc(CN4CCN(c5ncnc6ccsc56)CC4)ccc3C2=O)C(=O)N1` [GT-08443, 1-(1-oxo-5-((4-(thieno[3,2-d]pyrimidin-4-yl)piperazin-1-yl)methyl)isoindolin-2-yl)dihydropyrimidine-2,4(1H,3H)-dione], the “IKZF2 substrate protein remaining %” value on IKZF2 was “B (80%< substrate protein remaining % ≤100%)”. Besides, at CK1α, the “CK1α substrate protein remaining %” value is given as “B (80%< substrate protein remaining % ≤100%)”. Further, the “IKZF1 substrate protein remaining %” value on IKZF1 is recorded as “B (80%< substrate protein remaining % ≤100%)”. Further, the “IKZF3 substrate protein remaining %” value at IKZF3 is “B (80%< substrate protein remaining % ≤100%)”. At WEE1, the “WEE1 substrate protein remaining %” value is listed as “A (0% ≤ substrate protein remaining % ≤80%)”. The “GSPT1 substrate protein remaining %” value on GSPT1 was “B (80%< substrate protein remaining % ≤100%)”.

Consider `O=C1CCN(N2Cc3cc(CN4CCN(c5nc(Cl)nc6ccsc56)CC4)ccc3C2=O)C(=O)N1` [GT-08444, 1-(5-((4-(2-chlorothieno[3,2-d]pyrimidin-4-yl)piperazin-1-yl)methyl)-1-oxoisoindolin-2-yl)dihydropyrimidine-2,4(1H,3H)-dione], for which the “IKZF2 substrate protein remaining %” value on IKZF2 is recorded as “B (80%< substrate protein remaining % ≤100%)”. Further, the “CK1α substrate protein remaining %” value on CK1α is “B (80%< substrate protein remaining % ≤100%)”. The “IKZF1 substrate protein remaining %” value at IKZF1 is given as “B (80%< substrate protein remaining % ≤100%)”. Besides, at IKZF3, the “IKZF3 substrate protein remaining %” value is recorded as “B (80%< substrate protein remaining % ≤100%)”. Moreover, the “WEE1 substrate protein remaining %” value at WEE1 is on record as “A (0% ≤ substrate protein remaining % ≤80%)”. Besides, the “GSPT1 substrate protein remaining %” value on GSPT1 is “B (80%< substrate protein remaining % ≤100%)”.

Regarding `O=C1CCN(N2Cc3cc(CN4CCN(c5nc(N6CCOCC6)nc6ccsc56)CC4)ccc3C2=O)C(=O)N1` [GT-08446, 1-(5-((4-(2-morpholinothieno[3,2-d]pyrimidin-4-yl)piperazin-1-yl)methyl)-1-oxoisoindolin-2-yl)dihydropyrimidine-2,4(1H,3H)-dione], at IKZF2, the “IKZF2 substrate protein remaining %” value is “B (80%< substrate protein remaining % ≤100%)”. Also, at CK1α, the “CK1α substrate protein remaining %” value is on record as “B (80%< substrate protein remaining % ≤100%)”. Further, at IKZF1, the “IKZF1 substrate protein remaining %” value is “B (80%< substrate protein remaining % ≤100%)”. Further, the “IKZF3 substrate protein remaining %” value at IKZF3 was “A (0% ≤ substrate protein remaining % ≤80%)”. In addition, the “WEE1 substrate protein remaining %” value at WEE1 is “B (80%< substrate protein remaining % ≤100%)”. At GSPT1, the “GSPT1 substrate protein remaining %” value is given as “A (0% ≤ substrate protein remaining % ≤80%)”.

As to `O=C1CCN(N2C(=O)c3ccc(CN4CCN(c5nc(Cl)nc6c5SCC6)CC4)cc3C2=O)C(=O)N1` [GT-08448, 5-((4-(2-chloro-6,7-dihydrothieno[3,2-d]pyrimidin-4-yl)piperazin-1-yl)methyl)-2-(2,4-dioxotetrahydropyrimidin-1(2H)-yl)isoindoline-1,3-dione], the “IKZF2 substrate protein remaining %” value at IKZF2 is recorded as “B (80%< substrate protein remaining % ≤100%)”. Also, the “CK1α substrate protein remaining %” value on CK1α is “B (80%< substrate protein remaining % ≤100%)”. Moreover, the “IKZF1 substrate protein remaining %” value on IKZF1 was “B (80%< substrate protein remaining % ≤100%)”. Also, the “IKZF3 substrate protein remaining %” value at IKZF3 is “B (80%< substrate protein remaining % ≤100%)”. Also, at WEE1, the “WEE1 substrate protein remaining %” value is “B (80%< substrate protein remaining % ≤100%)”. In addition, the “GSPT1 substrate protein remaining %” value at GSPT1 was “A (0% ≤ substrate protein remaining % ≤80%)”.
